In US20230174584A1, “Antibiotic Compounds” (priority 2019, published 2023):
Values after ≈ are worked out from the molar mass of the structure shown. Where two headings read alike, the source gives them in different places.

Tests used:
[1] = system: S. aureus LIM-2, NR-25881; experiment: MIC assay; type: cell-based, Staphylococcus aureus
Method in brief: (§1)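 Following CLSI guidance, the assay uses twofold compound dilutions in tryptic soy broth plus 0.002% polysorbate 80, equal-volume inoculum of 10^6 CFU/mL, and a 24 h shaken incubation at 37 °C. Values are medians of triplicate or more, in μg/mL.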

[2] = system: S. aureus NY-155, NR-46236; experiment: MIC assay; type: cell-based, Staphylococcus aureus
Method in brief: as §1

[3] = system: Escherichia coli ATCC 25922; experiment: MIC assay; type: cell-based
Method in brief: as §1

[4] = system: Escherichia coli ATCC 35218; experiment: MIC assay; type: cell-based
Method in brief: as §1

Escherichia coli W3110 = experiment: MIC assay; type: cell-based
Method in brief: as §1

[5] = system: Klebsiella pneumoniae ATCC 13883; experiment: MIC assay; type: cell-based
Method in brief: as §1

[6] = system: Klebsiella pneumoniae ATCC 27736; experiment: MIC assay; type: cell-based
Method in brief: as §1

[7] = system: Klebsiella pneumoniae JS265; experiment: MIC assay; type: cell-based
Method in brief: as §1

S. pneumoniae 153 = experiment: MIC assay; type: cell-based
Method in brief: as §1

E. faecium E0341 = experiment: MIC assay; type: cell-based, Enterococcus faecium
S. aureus ATCC29123 = experiment: Lipid II antagonization assay; type: cell-based, Staphylococcus aureus; conditions: for visible bacterial growth with lipid II / visible bacterial growth without lipid II: 8×MIC of test compound, 24 h; for visible bacterial growth with lipid II: 5-fold molar excess of lipid II; on visible bacterial growth with lipid II: key: − means no visible growth; + means visible growth; on visible bacterial growth without lipid II: key: − means no visible growth; + means visible growth
Protocol: Lipid II in chloroform was added in the appropriate amount (5-fold molar excess compared to test antibiotics) to a 96-well plate and the chloroform was allowed to evaporate. […] Of these dilutions, 50 μL was mixed with the 5-fold molar excess of pure lipid II in triplicates in the plate as well as added to the plate in triplicates without lipid II present. S. aureus ATCC29123 colonies were suspended in TSB with 0.002% p80 by direct colony suspension to an optical density that reached a level equivalent to the 0.5 McFarlan standard. […] The samples were incubated at 37° C. for 24 h with constant shaking (600 rpm) and inspected for visible bacterial growth. Positive growth control consisted of wells with bacterial suspension and without antibiotic or lipid II. Negative growth control consisted of solely media without bacterial suspension, antibiotic or lipid II.
In the antagonization assay, lipid II is co-incubated with the test antibiotics in the presence of bacterial culture. When lipid II binds the glycopeptides, the binding of these antibiotics to their target in the growing bacterial culture is antagonized. This ultimately results in diminished activity of the antibiotics and bacterial growth which normally would not be visible (at 8×MIC) becomes visible. Therefore, this assay could be used to determine if part of the mechanism of action of our compounds involves binding to lipid II.

## CN[C@H](CC(C)C)C(=O)N[C@H]1C(=O)N[C@@H](CC(N)=O)C(=O)N[C@H]2C(=O)N[C@H]3C(=O)N[C@H](C(=O)N[C@H](C(=O)O)c4cc(O)cc(O)c4-c4cc3ccc4O)[C@H](O)c3ccc(c(Cl)c3)Oc3cc2cc(c3O[C@@H]2O[C@H](CO)[C@@H](O)[C@H](O)[C@H]2O[C@H]2C[C@](C)(NCc3ccc(N=C(N)NC/C=C(\C)CCC=C(C)C)cc3)[C@H](O)[C@H](C)O2)Oc2ccc(cc2Cl)[C@H]1O [Compound 14]
[1]; S. aureus LIM-2, NR-25881 VISA
  MIC: ≤0.008 µg/mL
[2]; S. aureus NY-155, NR-46236 MRSA
  MIC: ≤0.008 µg/mL
[3]
  MIC: >128 µg/mL
[4]
  MIC: >128 µg/mL
Escherichia coli W3110
  MIC: >128 µg/mL
[5]
  MIC: >128 µg/mL
[6]
  MIC: >128 µg/mL
[7]
  MIC: >128 µg/mL
S. pneumoniae 153; S. pneumoniae 153, TSB+0.002% p80+5% lysed horse blood
  MIC: ≤0.008 µg/mL
E. faecium E0341; E. faecium E0341, VanA
  MIC: 4 µg/mL (≈ 2.31 µM)
S. aureus ATCC29123
  visible bacterial growth with lipid II: +
  visible bacterial growth without lipid II: −
S. aureus ATCC29123; 8×MIC, co-incubation with lipid II
  bacterial growth after co-incubation with lipid II: Bacterial growth was visible

## CN[C@H](CC(C)C)C(=O)N[C@H]1C(=O)N[C@@H](CC(N)=O)C(=O)N[C@H]2C(=O)N[C@H]3C(=O)N[C@H](C(=O)N[C@H](C(=O)O)c4cc(O)cc(O)c4-c4cc3ccc4O)[C@H](O)c3ccc(c(Cl)c3)Oc3cc2cc(c3O[C@@H]2O[C@H](CO)[C@@H](O)[C@H](O)[C@H]2O[C@H]2C[C@](C)(N)[C@H](O)[C@H](C)O2)Oc2ccc(cc2Cl)[C@H]1O [Vancomycin, reference compound]
[1]; Staphylococcus aureus, VISA
  MIC: 8 µg/mL (≈ 5.52 µM)
[2]; Staphylococcus aureus, MRSA
  MIC: 2 µg/mL (≈ 1.38 µM)
[3]; ATCC25922, read-out: MIC
  MIC: > 128 µg/mL
[4]
  MIC: > 128 µg/mL
Escherichia coli W3110; read-out: MIC
  MIC: > 128 µg/mL
[5]; ATCC13883, read-out: MIC
  MIC: > 128 µg/mL
[6]; ATCC27736, read-out: MIC
  MIC: > 128 µg/mL
[7]; read-out: MIC
  MIC: > 128 µg/mL
S. pneumoniae 153; Streptococcus pneumoniae, 153
  MIC: 0.5 µg/mL (≈ 0.345 µM)
E. faecium E0341; Enterococcus faecium, E0341
  MIC: > 128 µg/mL
S. aureus ATCC29123
  visible bacterial growth with lipid II: +
  visible bacterial growth without lipid II: −
